Assay results reported in paper PMC10442399, “Crystal structure and functional implications of cyclic di-pyrimidine-synthesizing cGAS/DncV-like nucleotidyltransferases” (Nature Communications, 2023).
“Also recorded” adds a separate entry of the source. Read-outs that look alike come from different tables or passages of the source.

Assays:
EfCdnE^W281A = biological target: T1, EfCdnE^W281A (Enterococcus faecalis, UniProt P0DX98, W281A); assay: ITC analysis of nucleotide binding to EfCdnE^W281A mutant; conditions: read-out: dissociation constant (KD)
T1 construct: Full-length gene fragments encoding ClCdnE from Cecembia lonarensis; His6 (C); made in house; host or cells: E. coli BL21 (DE3)
T1 sequence (P0DX98 1-299 W281A): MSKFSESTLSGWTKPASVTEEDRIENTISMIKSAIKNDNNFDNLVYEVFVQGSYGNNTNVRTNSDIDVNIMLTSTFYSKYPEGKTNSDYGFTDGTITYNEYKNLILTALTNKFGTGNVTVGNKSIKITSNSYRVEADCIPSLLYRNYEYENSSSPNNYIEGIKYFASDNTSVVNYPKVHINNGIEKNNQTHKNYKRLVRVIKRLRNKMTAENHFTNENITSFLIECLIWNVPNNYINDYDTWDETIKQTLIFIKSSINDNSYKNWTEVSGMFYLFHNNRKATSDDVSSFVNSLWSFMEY
Text: (§1) To validate the importance of this motif, we changed Arg279 and Trp281 of EfCdnE to a smaller alanine residue and assessed the substrate specificity and product synthesis of both wild-type and mutant EfCdnE by ITC and LC-MS/MS. […] Based on sequence conservation and structural similarity, it is proposed that the cyclic di-pyrimidine-synthesizing CdnE proteins, including ClCdnE, EfCdnE, and LpCdnE, form smaller donor pockets that act as molecular gauges to recognize and retain the binding of pyrimidine nucleotides but weaken or exclude the binding to purine nucleotides (Fig. 6F). In combination with the conserved Asn residue in the acceptor pocket, the substrate specificity for double pyrimidine was achieved (Fig. 6F).
(§2) EfCdnE was chosen as the sample to evaluate the affinity of this class of enzyme to different nucleotides by isothermal titration calorimetry (ITC), using nano-ITC (TA Instruments). EfCdnE was dialyzed overnight against an assay buffer containing 20 mM Tris pH 8.0, 150 mM NaCl. The nucleotides to be tested (UTP, CTP, ATP and GTP, and their analogs) were each dissolved in the same buffer. […] The final data were analyzed and curve-fitted with sequential two-site mode by using NanoAnalyze v3.12.5 (TA Instruments).

EfCdnE = biological target: T2, EfCdnE (Enterococcus faecalis, UniProt P0DX98); assay: ITC analysis of nucleotide binding to wild-type EfCdnE
T2 construct: Full-length gene fragments encoding ClCdnE from Cecembia lonarensis; made in house; host or cells: E. coli BL21 (DE3)
Method: EfCdnE was chosen as the sample to evaluate the affinity of this class of enzyme to different nucleotides by isothermal titration calorimetry (ITC), using nano-ITC (TA Instruments). EfCdnE was dialyzed overnight against an assay buffer containing 20 mM Tris pH 8.0, 150 mM NaCl. The nucleotides to be tested (UTP, CTP, ATP and GTP, and their analogs) were each dissolved in the same buffer. Titration was carried out by 20 sequential injections of the nucleotide at a concentration of 250 μM at 3-min intervals to 50 μM EfCdnE, with a stirring speed of 300 rpm. The heat of dilution resulting from injecting the nucleotide into the assay buffer was subtracted. The final data were analyzed and curve-fitted with sequential two-site mode by using NanoAnalyze v3.12.5 (TA Instruments).

EfCdnE^R279A = biological target: T3, EfCdnE^R279A (Enterococcus faecalis, UniProt P0DX98, R279A); assay: ITC analysis of nucleotide binding to EfCdnE^R279A mutant
T3 construct: Full-length gene fragments encoding ClCdnE from Cecembia lonarensis; His6 (C); made in house; host or cells: E. coli BL21 (DE3)
Text: as §1, §2

[1] = dissociation constant (KD), second of two binding sites, ITC, wild-type EfCdnE, sequential two-site fit, second-named site (acceptor pocket for UMPnPP)

T2 sequence (P0DX98 whole entry, the tested form may be a part): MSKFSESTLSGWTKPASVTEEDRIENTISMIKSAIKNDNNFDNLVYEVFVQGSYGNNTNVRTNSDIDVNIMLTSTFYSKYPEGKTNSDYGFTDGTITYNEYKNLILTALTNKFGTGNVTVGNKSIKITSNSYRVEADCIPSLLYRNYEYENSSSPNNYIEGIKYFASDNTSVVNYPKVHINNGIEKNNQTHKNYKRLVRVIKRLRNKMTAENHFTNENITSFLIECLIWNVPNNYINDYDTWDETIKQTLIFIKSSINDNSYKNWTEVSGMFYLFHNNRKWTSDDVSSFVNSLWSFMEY
T3 sequence (P0DX98 whole entry R279A, the tested form may be a part): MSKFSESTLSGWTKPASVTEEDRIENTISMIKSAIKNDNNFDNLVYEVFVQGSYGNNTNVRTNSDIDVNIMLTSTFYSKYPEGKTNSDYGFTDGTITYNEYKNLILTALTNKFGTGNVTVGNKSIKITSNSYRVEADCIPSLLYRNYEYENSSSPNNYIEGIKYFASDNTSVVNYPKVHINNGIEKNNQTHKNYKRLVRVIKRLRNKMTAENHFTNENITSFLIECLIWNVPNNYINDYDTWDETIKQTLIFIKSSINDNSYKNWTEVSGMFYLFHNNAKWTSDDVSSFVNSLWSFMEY

Row | SMILES | Kd (EfCdnE^W281A) | binding to EfCdnE (in words) (EfCdnE; ITC, wild-type EfCdnE) | binding affinity, dissociation constant (in words) (EfCdnE^R279A) | Kd (EfCdnE) | binding to EfCdnE pre-incubated with UMPnPP (in words) (EfCdnE; ITC, EfCdnE pre-incubated with UMPnPP) | Kd (EfCdnE; [1])
1 | Nc1ncnc2c1ncn2[C@@H]1O[C@H](COP(=O)(O)CP(=O)(O)OP(=O)(O)O)[C@@H](O)[C@H]1O [AMPcPP] | 35000 nM | No binding; also recorded: too weak to be detected |  |  |  | 
2 | Nc1ncnc2c1ncn2[C@@H]1O[C@H](COP(=O)(O)OP(=O)(O)OP(=O)(O)O)[C@@H](O)[C@H]1O [ATP] |  | did not | near micromolar |  |  | 
3 | Nc1ccn([C@@H]2O[C@H](COP(=O)(O)CP(=O)(O)OP(=O)(O)O)[C@@H](O)[C@H]2O)c(=O)n1 [CMPcPP] |  |  |  | 18.7 nM | no binding; also recorded: did not bind | 1270 nM
4 | Nc1nc2c(ncn2[C@@H]2O[C@H](COP(=O)(O)CP(=O)(O)OP(=O)(O)O)[C@@H](O)[C@H]2O)c(=O)[nH]1 [GMPcPP] | 65000 nM | No binding; also recorded: too weak to be detected |  |  |  | 
5 | Nc1nc2c(ncn2[C@@H]2O[C@H](COP(=O)(O)OP(=O)(O)OP(=O)(O)O)[C@@H](O)[C@H]2O)c(=O)[nH]1 [GTP] |  | did not | near micromolar |  |  | 
6 | O=c1ccn([C@@H]2O[C@H](COP(=O)(O)NP(=O)(O)OP(=O)(O)O)[C@@H](O)[C@H]2O)c(=O)[nH]1 [UMPnPP] |  |  |  | 14.7 nM |  | 980 nM
